Data reported in patent publication US10611771B2, “Pyrazolo [3,4-d] pyrimidine derivative” (WEST CHINA HOSPITAL, SICHUAN UNIVERSITY, priority 2016, dated 2020).
Several values for one entry are separate records, joined by “and”; a condition that tells them apart may be missing. Identical values can stand only once.

Tested on: A549 cells
Assay: MTT detection method, inhibitory effect against A549 cells
Format: cell-based
From the text: MTT detection method was used, and MTT is a yellow compound and a dye accepting hydrogen ions, and can be used as the respiratory chain in mitochondria of viable cells. Under the action of succinate dehydrogenase and cytochrome C, the tetrazolium ring broke to form blue formanzan crystal, and the formation amount of formanzan crystal was only directly proportional to the viable counts. The formanzan crystal formed by reduction can dissolve in dimethyl sulfoxide (DMSO), and the optical density (OD) value can be determined at 490 nm using ELISA, to reflect the viable counts.
• Lung cancer cell lines: A549 and H1299. • Experimental materials: lung cancer cell lines, instruments and tools for cell culture, MTT, the compound mother liquid (10 mmol/L), and the positive control drug Src inhibitor pp1. 1. Specific Method • (3-1) Cell lines A549 and H1299 were recovered, and when the cells were in good conditions, namely cells grew to about 80% after one passage (i.e. the logarithmic growth phase), the cells were planked (96-well plate). • (3-2) Firstly, cells were collected, and the concentration of cell suspension was adjusted with counting chamber. Cells were seeded in 96-well plate at 1000˜10000 cells/well, and the detailed cell numbers in each well were dependent on the growth rate of different cells and the action time of drugs. A549 cells were seeded at 5000 cells, while H1299 cells were also seeded at 5000 cells, 200 μl for each well (100 μl cell suspension+100 μl drug dilution at different concentration gradient). The edge wells (36) were added 200 μl culture media (for prevention of edge effect). • (3-3) After planking and adding drugs, the plate was treated at 24 h, 48 h, and 72 h, and then for coloration, each well was added 200 μl culture media containing 20 μl MTT solution (5 mg/mL). The plate was continually cultured for 1˜4 hours, the incubation was stopped, and the culture supernatant fluid in each well was carefully absorbed. For suspension cells, the culture supernatant fluid in each well need be centrifuged before drawing. 150 μl DMSO was added to each well, and the plate was shaken on a shaking table for 15˜20 min, to allow the crystals to be completely dissolved. • (3-4) Colorimetry: The colorimetry was performed by ELISA, and the optical absorption value of each well was tested at a wavelength of 490 nm or 570 nm, and the result was recorded. • (3-5) Calculation Inhibition ratio=(the control−the drug)/the control×100% • IC50 (50% inhibitory concentration) can be calculated by spass software based on the inhibitory ratio at different concentration. II. Experimental Results • A549 cells were treated at 4 h, 24 h, 48 h, 72 h, and the drug dose was divided into the light concentration group (10 μm, 25 μm, 40 μm) and the high concentration group (50 μm, 80 μm, 100 μm), that were seeded at 6000 cells/well and 5000 cells/well, respectively, to carry out the experiment.

SMILES: Cc1ccc(-c2nn(C(C)(C)C)c3ncnc(N)c23)cc1 [PP1, reference compound]
- The inhibitory ratio (%) for three parallel assays (4 h, 10 μm): 14.06% and 5.63% and 10.31%
- The mean inhibitory ratio (%) (4 h, 10 μm): 10.00%
- The mean inhibitory ratio (%) (4 h, 25 μm): 8.44%
- The inhibitory ratio (%) for three parallel assays (4 h, 40 μm): 31.88% and 35.00% and 23.44%
- The mean inhibitory ratio (%) (4 h, 40 μm): 30.10%
- The inhibitory ratio (%) for three parallel assays (4 h, 50 μm): 26.86% and 23.43% and 24.00%
- The mean inhibitory ratio (%) (4 h, 50 μm): 24.76%
- The inhibitory ratio (%) for three parallel assays (4 h, 80 μm): 32.86% and 31.43% and 30.00%
- The mean inhibitory ratio (%) (4 h, 80 μm): 31.43%
- The inhibitory ratio (%) for three parallel assays (4 h, 100 μm): 44.00% and 43.43%
- The mean inhibitory ratio (%) (4 h, 100 μm): 43.81%
- The inhibitory ratio (%) for three parallel assays (24 h, 10 μm): 14.13% and 14.78% and 11.09%
- The mean inhibitory ratio (%) (24 h, 10 μm): 13.33%
- The inhibitory ratio (%) for three parallel assays (24 h, 25 μm): 49.35% and 47.39% and 48.04%
- The mean inhibitory ratio (%) (24 h, 25 μm): 48.26%
- The inhibitory ratio (%) for three parallel assays (24 h, 40 μm): 63.91% and 64.13% and 64.35%
- The mean inhibitory ratio (%) (24 h, 40 μm): 64.13%
- The inhibitory ratio (%) for three parallel assays (24 h, 50 μm): 56.46% and 55.83% and 56.04%
- The mean inhibitory ratio (%) (24 h, 50 μm): 56.11%
- The inhibitory ratio (%) for three parallel assays (24 h, 80 μm): 74.79% and 72.92% and 73.54%
- The mean inhibitory ratio (%) (24 h, 80 μm): 73.75%
- The inhibitory ratio (%) for three parallel assays (24 h, 100 μm): 80.63% and 79.58% and 79.17%
- The mean inhibitory ratio (%) (24 h, 100 μm): 79.79%
- The inhibitory ratio (%) for three parallel assays (48 h, 10 μm): 48.91% and 48.44% and 45.94%
- The mean inhibitory ratio (%) (48 h, 10 μm): 47.76%
- The inhibitory ratio (%) for three parallel assays (48 h, 25 μm): 66.88% and 67.03% and 66.72%
- The mean inhibitory ratio (%) (48 h, 25 μm): 66.88%
- The inhibitory ratio (%) for three parallel assays (48 h, 40 μm): 74.53% and 74.22%
- The mean inhibitory ratio (%) (48 h, 40 μm): 74.43%
- The inhibitory ratio (%) for three parallel assays (48 h, 50 μm): 69.50% and 67.00% and 66.67%
- The mean inhibitory ratio (%) (48 h, 50 μm): 67.72%
- The inhibitory ratio (%) for three parallel assays (48 h, 80 μm): 81.17% and 80.00% and 80.17%
- The mean inhibitory ratio (%) (48 h, 80 μm): 80.44%
- The inhibitory ratio (%) for three parallel assays (48 h, 100 μm): 82.50% and 81.33% and 82.33%
- The mean inhibitory ratio (%) (48 h, 100 μm): 82.06%
- The inhibitory ratio (%) for three parallel assays (72 h, 10 μm): 63.42% and 63.87% and 64.59%
- The mean inhibitory ratio (%) (72 h, 10 μm): 63.96%
- The inhibitory ratio (%) for three parallel assays (72 h, 25 μm): 83.06% and 82.97% and 83.69%
- The mean inhibitory ratio (%) (72 h, 25 μm): 83.24%
- The inhibitory ratio (%) for three parallel assays (72 h, 40 μm): 86.76% and 86.13% and 87.66%
- The mean inhibitory ratio (%) (72 h, 40 μm): 86.85%
- The inhibitory ratio (%) for three parallel assays (72 h, 50 μm): 82.70% and 81.35% and 82.43%
- The mean inhibitory ratio (%) (72 h, 50 μm): 82.16%
- The inhibitory ratio (%) for three parallel assays (72 h, 80 μm): 85.95% and 86.22% and 86.08%
- The mean inhibitory ratio (%) (72 h, 80 μm): 86.08%
- The inhibitory ratio (%) for three parallel assays (72 h, 100 μm): 85.41% and 85.68%
- The mean inhibitory ratio (%) (72 h, 100 μm): 85.59%
